US12303497B2, “Anti-androgens for the treatment of metastatic castration-sensitive prostate cancer” (priority 2019, dated 2025)

Test system: patients with metastatic castration-sensitive prostate cancer (mCSPC)

CNC(=O)c1ccc(N2C(=S)N(c3cnc(C#N)c(C(F)(F)F)c3)C(=O)C23CCC3)cc1F [Apalutamide, 4-[7-(6-cyano-5-trifluoromethylpyridin-3-yl)-8-oxo-6-thioxo-5,7-diazaspiro[3.4]oct-5-yl]-2-fluoro-N-methylbenzamide]
AE leading to dose interruption: Hyponatremia (All Grades): 1 (0.2) no. (%)
AE leading to dose interruption: Infections (All Grades): 6 (1.1) no. (%)
AE leading to dose interruption: Influenza-like illness (All Grades): 1 (0.2) no. (%)
AE leading to dose interruption: Insomnia (All Grades): 3 (0.6) no. (%)
AE leading to dose interruption: Ischemic cardiac events (All Grades): 1 (0.2) no. (%)
AE leading to dose interruption: Large intestinal ulcer perforation (All Grades): 1 (0.2) no. (%)
AE leading to dose interruption: Mental status changes (All Grades): 1 (0.2) no. (%)
AE leading to dose interruption: Muscular weakness (All Grades): 1 (0.2) no. (%)
AE leading to dose interruption: Musculoskeletal stiffness (All Grades): 0 no. (%)
AE leading to dose interruption: Nausea (All Grades): 1 (0.2) no. (%)
AE leading to dose interruption: Neutropenia (All Grades): 2 (0.4) no. (%)
AE leading to dose interruption: New cancer neoplasm (All Grades): 3 (0.6) no. (%)
AE leading to dose interruption: Osteoarthritis (All Grades): 0 no. (%)
AE leading to dose interruption: Osteoporosis (All Grades): 1 (0.2) no. (%)
AE leading to dose interruption: Pain (grouped term) (All Grades): 9 (1.7) no. (%)
AE leading to dose interruption: Pathological fracture (All Grades): 0 no. (%)
AE leading to dose interruption: Peripheral edema (All Grades): 1 (0.2) no. (%)
AE leading to dose interruption: Peripheral swelling (All Grades): 0 no. (%)
AE leading to dose interruption: Proctalgia (All Grades): 1 (0.2) no. (%)
AE leading to dose interruption: Pyrexia (All Grades): 3 (0.6) no. (%)
AE leading to dose interruption: Rash (grouped term) (All Grades): 44 (8.4) no. (%)
AE leading to dose interruption: Renal injury (All Grades): 0 no. (%)
AE leading to dose interruption: Rheumatoid arthritis (All Grades): 1 (0.2) no. (%)
AE leading to dose interruption: Seizure (All Grades): 1 (0.2) no. (%)
AE leading to dose interruption: Spinal cord compression (All Grades): 1 (0.2) no. (%)
AE leading to dose interruption: Stomatitis (All Grades): 1 (0.2) no. (%)
AE leading to dose interruption: Subarachnoid hematoma (All Grades): 1 (0.2) no. (%)
AE leading to dose interruption: Subarachnoid hemorrhage (All Grades): 1 (0.2) no. (%)
AE leading to dose interruption: Subdural hemorrhage (All Grades): 0 no. (%)
AE leading to dose interruption: Syncope (All Grades): 1 (0.2) no. (%)
AE leading to dose interruption: Thrombocytopenia (All Grades): 1 (0.2) no. (%)
AE leading to dose interruption: Tongue ulceration (All Grades): 1 (0.2) no. (%)
AE leading to dose interruption: Urethral stenosis (All Grades): 0 no. (%)
AE leading to dose interruption: Urinary incontinence (All Grades): 1 (0.2) no. (%)
AE leading to dose interruption: Urinary retention (All Grades): 2 (0.4) no. (%)
AE leading to dose interruption: Urinary tract obstruction (All Grades): 1 (0.2) no. (%)
AE leading to dose interruption: Vertigo (All Grades): 1 (0.2) no. (%)
AE leading to dose interruption: Vomiting (All Grades): 3 (0.6) no. (%)
AE leading to dose interruption: Weight increased (All Grades): 0 no. (%)
AE leading to dose reduction: Aspartate aminotransferase or alanine aminotransferase increased (All Grades): 0 no. (%)
AE leading to dose reduction: Asthenia (All Grades): 0 no. (%)
AE leading to dose reduction: Cognitive disorder (All Grades): 1 (0.2) no. (%)
AE leading to dose reduction: Dehydration (All Grades): 1 (0.2) no. (%)
AE leading to dose reduction: Fatigue (All Grades): 2 (0.4) no. (%)
AE leading to dose reduction: General physical health deterioration (All Grades): 1 (0.2) no. (%)
AE leading to dose reduction: Headache (All Grades): 1 (0.2) no. (%)
AE leading to dose reduction: Hot flush (All Grades): 1 (0.2) no. (%)
AE leading to dose reduction: Hypertension (All Grades): 1 (0.2) no. (%)
AE leading to dose reduction: Lethargy (All Grades): 0 no. (%)
AE leading to dose reduction: Neutropenia (All Grades): 2 (0.4) no. (%)
AE leading to dose reduction: Pain (All Grades): 1 (0.2) no. (%)
AE leading to dose reduction: Performance status decreased (All Grades): 0 no. (%)
AE leading to dose reduction: Rash (grouped term) (All Grades): 28 (5.3) no. (%)
AE leading to dose reduction: Vertigo (All Grades): 1 (0.2) no. (%)
AE leading to dose reduction: Weight decreased (All Grades): 1 (0.2) no. (%)
AE of special interest: Fall (All Grades): 39 (7.4) no. (%)
AE of special interest: Fracture (grouped term) (All Grades): 33 (6.3) no. (%)
AE of special interest: Hypothyroidism (grouped term) (All Grades): 34 (6.5) no. (%)
AE of special interest: Rash (grouped term) (All Grades): 142 (27.1) no. (%)
AE of special interest: Seizure (grouped term) (All Grades): 3 (0.6) no. (%)
Patients with treatment-emergent adverse events leading to discontinuation (All Grades): 42 (8.0) no. (%)
Patients with treatment-emergent adverse events leading to dose reduction (All Grades): 37 (7.1) no. (%)
Patients with treatment-emergent events leading to dose interruption (All Grades): 104 (19.8) no. (%)
TEAE: Anemia (All Grades): 48 (9.2) no. (%)
TEAE: Arthralgia (All Grades): 91 (17.4) no. (%)
TEAE: Asthenia (All Grades): 37 (7.1) no. (%)
TEAE: Back pain (All Grades): 91 (17.4) no. (%)
TEAE: Blood alkaline phosphatase increased (All Grades): 16 (3.1) no. (%)
TEAE: Bone pain (All Grades): 34 (6.5) no. (%)
TEAE: Constipation (All Grades): 47 (9.0) no. (%)
TEAE: Fatigue (All Grades): 103 (19.7) no. (%)
TEAE: Hot flush (All Grades): 119 (22.7) no. (%)
TEAE: Hypertension (All Grades): 93 (17.7) no. (%)
TEAE: Pain in extremity (All Grades): 64 (12.2) no. (%)
TEAE: Pruritus (All Grades): 56 (10.7) no. (%)
TEAE: Rash generalized (All Grades): 34 (6.5) no. (%)
TEAE: Urinary retention (All Grades): 13 (2.5) no. (%)
TEAE: Weight increased (All Grades): 54 (10.3) no. (%)
AE leading to discontinuation: Alanine aminotransferase increased (Grade ≥3): 0 no. (%)
AE leading to discontinuation: Anxiety (Grade ≥3): 0 no. (%)
AE leading to discontinuation: Atrial fibrillation (Grade ≥3): 1 (0.2) no. (%)
AE leading to discontinuation: Cardiac failure (Grade ≥3): 0 no. (%)
AE leading to discontinuation: Cardio-respiratory arrest (Grade ≥3): 1 (0.2) no. (%)
AE leading to discontinuation: Cardiogenic shock (Grade ≥3): 1 (0.2) no. (%)
AE leading to discontinuation: Cerebrovascular disorder (Grade ≥3): 1 (0.2) no. (%)
AE leading to discontinuation: Cognitive disorder (Grade ≥3): 0 no. (%)
AE leading to discontinuation: Dehydration (Grade ≥3): 0 no. (%)
AE leading to discontinuation: Dyspnea (Grade ≥3): 0 no. (%)
AE leading to discontinuation: Euphoric mood (Grade ≥3): 0 no. (%)
AE leading to discontinuation: Fatigue (Grade ≥3): 1 (0.2) no. (%)
AE leading to discontinuation: Hot flush (Grade ≥3): 0 no. (%)
AE leading to discontinuation: Hypothermia (Grade ≥3): 0 no. (%)
AE leading to discontinuation: Infections (Grade ≥3): 1 (0.2) no. (%)
AE leading to discontinuation: Intracranial hemorrhage (Grade ≥3): 0 no. (%)
AE leading to discontinuation: Ischemic cardiac events (Grade ≥3): 2 (0.4) no. (%)
AE leading to discontinuation: Large intestinal ulcer perforation (Grade ≥3): 1 (0.2) no. (%)
